Data from US10004701B2, “Methods and compositions for treating infection” (UNIVERSITY OF ROCHESTER, priority 2012, dated 2018).
Counter-ions that a name gives are not always drawn. Like-named read-outs stand apart in the source and are kept apart here.

Tests used:
Assay in all cases: AK assay 384-well format, Prestwick library screening
[1] = tested on: E. faecium; assay type: cell-based, Enterococcus faecium; conditions: Enterococcus faecium, 3 h, 50 μM final drug concentration
[2] = tested on: K. pneumoniae; assay type: cell-based, Klebsiella pneumoniae; conditions: Klebsiella pneumoniae, 3 h, 50 μM final drug concentration
[3] = tested on: E. cloacae; assay type: cell-based, Enterobacter cloacae; conditions: Enterobacter cloacae, 3 h, 50 μM final drug concentration
[4] = tested on: A. baumannii strain 98-37-09; assay type: cell-based, Acinetobacter baumannii; conditions: Acinetobacter baumannii, 983709, 3 h, 50 μM final drug concentration
[5] = tested on: P. aeruginosa; assay type: cell-based, Pseudomonas aeruginosa; conditions: Pseudomonas aeruginosa, 3 h, 50 μM final drug concentration
[6] = tested on: E. coli; assay type: cell-based, Escherichia coli; conditions: Escherichia coli, 3 h, 50 μM final drug concentration
[7] = tested on: S. aureus strain USA300-0114; assay type: cell-based, Staphylococcus aureus; conditions: Staphylococcus aureus, USA300, 3 h, 50 μM final drug concentration
[8] = planktonic, cutoff for positive-scoring molecules 3-fold increase, read-out: AK-based Prestwick Library Screening Results, E. faecium (fold increase in extracellular AK activity)
[9] = planktonic, cutoff for positive-scoring molecules 3-fold increase, read-out: AK-based Prestwick Library Screening Results, K. pneumoniae (fold increase in extracellular AK activity)
[10] = planktonic, cutoff for positive-scoring molecules 3-fold increase, read-out: AK-based Prestwick Library Screening Results, E. cloacae (fold increase in extracellular AK activity)
[11] = planktonic, cutoff for positive-scoring molecules 3-fold increase, read-out: AK-based Prestwick Library Screening Results, A. baumannii (fold increase in extracellular AK activity)
[12] = planktonic, cutoff for positive-scoring molecules 3-fold increase, read-out: AK-based Prestwick Library Screening Results, P. aeruginosa (fold increase in extracellular AK activity)
[13] = planktonic, cutoff for positive-scoring molecules 3-fold increase, read-out: AK-based Prestwick Library Screening Results, E. coli (fold increase in extracellular AK activity)
[14] = planktonic, cutoff for positive-scoring molecules 3-fold increase, read-out: AK-based Prestwick Library Screening Results, S. aureus (fold increase in extracellular AK activity)
[15] = planktonic, cutoff for positive 3-fold increase, read-out: AK-based Prestwick Library Screening Results, E. faecium (fold increase in extracellular AK activity)
[16] = planktonic, cutoff for positive 3-fold increase, read-out: AK-based Prestwick Library Screening Results, K. pneumoniae (fold increase in extracellular AK activity)
[17] = planktonic, cutoff for positive 3-fold increase, read-out: AK-based Prestwick Library Screening Results, E. cloacae (fold increase in extracellular AK activity)
[18] = planktonic, cutoff for positive 3-fold increase, read-out: AK-based Prestwick Library Screening Results, A. baumannii (fold increase in extracellular AK activity)
[19] = planktonic, cutoff for positive 3-fold increase, read-out: AK-based Prestwick Library Screening Results, P. aeruginosa (fold increase in extracellular AK activity)
[20] = planktonic, cutoff for positive 3-fold increase, read-out: AK-based Prestwick Library Screening Results, E. coli (fold increase in extracellular AK activity)
[21] = planktonic, cutoff for positive 3-fold increase, read-out: AK-based Prestwick Library Screening Results, S. aureus (fold increase in extracellular AK activity)
[22] = planktonic E. faecium, 384-well, cutoff for positive-scoring molecules 3-fold increase, read-out: AK-based Prestwick Library Screening Results: E. faecium (increase in extracellular AK activity)
[23] = planktonic K. pneumoniae, 384-well, cutoff for positive-scoring molecules 3-fold increase, read-out: AK-based Prestwick Library Screening Results: K. pneumoniae (increase in extracellular AK activity)
[24] = planktonic E. cloacae, 384-well, cutoff for positive-scoring molecules 3-fold increase, read-out: AK-based Prestwick Library Screening Results: E. cloacae (increase in extracellular AK activity)
[25] = planktonic A. baumannii, 384-well, cutoff for positive-scoring molecules 3-fold increase, read-out: AK-based Prestwick Library Screening Results: A. baumannii (increase in extracellular AK activity)
[26] = planktonic P. aeruginosa, 384-well, cutoff for positive-scoring molecules 3-fold increase, read-out: AK-based Prestwick Library Screening Results: P. aeruginosa (increase in extracellular AK activity)
[27] = planktonic E. coli, 384-well, cutoff for positive-scoring molecules 3-fold increase, read-out: AK-based Prestwick Library Screening Results: E. coli (increase in extracellular AK activity)
[28] = planktonic S. aureus, 384-well, cutoff for positive-scoring molecules 3-fold increase, read-out: AK-based Prestwick Library Screening Results: S. aureus (increase in extracellular AK activity)

`CN(C)CCCSC(=N)N` [Dimaprit dihydrochloride] showed a fold induction at 50 µM ([1]; planktonic E. faecium, positive cutoff 3-fold increase, read-out: AK-based Prestwick library screening result, E. faecium (fold increase in extracellular AK activity)) of 0.9, a fold induction at 50 µM ([2]; planktonic K. pneumoniae, positive cutoff 3-fold increase, read-out: AK-based Prestwick library screening result, K. pneumoniae (fold increase in extracellular AK activity)) of 0.7 and a fold induction at 50 µM ([3]; planktonic E. cloacae, positive cutoff 3-fold increase, read-out: AK-based Prestwick library screening result, E. cloacae (fold increase in extracellular AK activity)) of 1. For the same molecule, the fold induction at 50 µM ([4]; planktonic A. baumannii, positive cutoff 3-fold increase, read-out: AK-based Prestwick library screening result, A. baumannii (fold increase in extracellular AK activity)) was 0.8, the fold induction at 50 µM ([5]; planktonic P. aeruginosa, positive cutoff 3-fold increase, read-out: AK-based Prestwick library screening result, P. aeruginosa (fold increase in extracellular AK activity)) was 0.8 and the fold induction at 50 µM ([6]; planktonic E. coli, positive cutoff 3-fold increase, read-out: AK-based Prestwick library screening result, E. coli (fold increase in extracellular AK activity)) was 0.8. It also gave a fold induction at 50 µM ([7]; planktonic S. aureus, positive cutoff 3-fold increase, read-out: AK-based Prestwick library screening result, S. aureus (fold increase in extracellular AK activity)) of 0.7.
Work on `CC1(C)OC(=O)NC1=O` [Dimethadione] yielded a fold induction at 50 µM [1, 8] of 0.9, a fold induction at 50 µM [2, 9] of 0.8 and a fold induction at 50 µM [3, 10] of 1. It also gave a fold induction at 50 µM [4, 11] of 0.8, a fold induction at 50 µM [5, 12] of 0.8 and a fold induction at 50 µM [6, 13] of 0.9. For the same molecule, the fold induction at 50 µM [7, 14] was 0.7.
`CCCCc1cc2ccccc2c(OCCN(C)C)n1` [Dimethisoquin hydrochloride] was tested, and the fold induction at 50 µM [1, 15] was 1, the fold induction at 50 µM [2, 16] was 1.2 and the fold induction at 50 µM [3, 17] was 1.5. It also gave a fold induction at 50 µM [4, 18] of 1.5, a fold induction at 50 µM [5, 19] of 1.2 and a fold induction at 50 µM [6, 20] of 1.3. For the same molecule, the fold induction at 50 µM [7, 21] was 1.3.
`CCCCC[C@H](O)/C=C/[C@@H]1[C@@H](C/C=C\CCCC(=O)O)[C@@H](O)C[C@H]1O` [Dinoprost trometamol] was tested, and the fold induction at 50 µM [1, 15] was 1, the fold induction at 50 µM [2, 16] was 1 and the fold induction at 50 µM [3, 17] was 1.1. It also gave a fold induction at 50 µM [4, 18] of 1.2, a fold induction at 50 µM [5, 19] of 1 and a fold induction at 50 µM [6, 20] of 1. It also gave a fold induction at 50 µM [7, 21] of 1.4.
`COc1ccc(C(=O)c2ccccc2O)c(O)c1` [Dioxybenzone] was tested, and the fold induction at 50 µM [1, 8] was 0.8, the fold induction at 50 µM [2, 9] was 0.7 and the fold induction at 50 µM [3, 10] was 1. It also gave a fold induction at 50 µM [4, 11] of 0.6, a fold induction at 50 µM [5, 12] of 0.7 and a fold induction at 50 µM [6, 13] of 0.8. The fold induction at 50 µM [7, 14] was 0.5.
`O=C(Nc1ccccc1)OCC(CN1CCCCC1)OC(=O)Nc1ccccc1` (stereo not drawn) [Diperodon hydrochloride] showed a fold induction at 50 µM [1, 22] of 1.1, a fold induction at 50 µM [2, 23] of 0.9 and a fold induction at 50 µM [3, 24] of 1.4. For the same molecule, the fold induction at 50 µM [4, 25] was 1.1, the fold induction at 50 µM [5, 26] was 1.1 and the fold induction at 50 µM [6, 27] was 1.4. For the same molecule, the fold induction at 50 µM [7, 28] was 1.2.
`C[N+]1(C)CCC(=C(c2ccccc2)c2ccccc2)CC1` [Diphemanil methylsulfate] was tested, and the fold induction at 50 µM ([1]; planktonic E. faecium, 384-well, […], read-out: AK-based Prestwick Library Screening Results: E. faecium (increase in extracellular AK activity)) was 1.1, the fold induction at 50 µM ([2]; planktonic K. pneumoniae, 384-well, […], read-out: AK-based Prestwick Library Screening Results: K. pneumoniae (increase in extracellular AK activity)) was 1.1 and the fold induction at 50 µM ([3]; planktonic E. cloacae, 384-well, […], read-out: AK-based Prestwick Library Screening Results: E. cloacae (increase in extracellular AK activity)) was 1.6. It also gave a fold induction at 50 µM ([4]; planktonic A. baumannii, 384-well, […], read-out: AK-based Prestwick Library Screening Results: A. baumannii (increase in extracellular AK activity)) of 1.3, a fold induction at 50 µM ([5]; planktonic P. aeruginosa, 384-well, […], read-out: AK-based Prestwick Library Screening Results: P. aeruginosa (increase in extracellular AK activity)) of 1 and a fold induction at 50 µM ([6]; planktonic E. coli, 384-well, […], read-out: AK-based Prestwick Library Screening Results: E. coli (increase in extracellular AK activity)) of 1.2. It also gave a fold induction at 50 µM ([7]; planktonic S. aureus, 384-well, […], read-out: AK-based Prestwick Library Screening Results: S. aureus (increase in extracellular AK activity)) of 1.5.
`CN(C)CCOC(c1ccccc1)c1ccccc1` [Diphenhydramine hydrochloride] was tested, and the fold induction at 50 µM [1, 22] was 0.9, the fold induction at 50 µM [2, 23] was 1 and the fold induction at 50 µM [3, 24] was 1.4. For the same molecule, the fold induction at 50 µM [4, 25] was 1.3, the fold induction at 50 µM [5, 26] was 1 and the fold induction at 50 µM [6, 27] was 1.3. It also gave a fold induction at 50 µM [7, 28] of 1.1.
Work on `OC(CCCN1CCCCC1)(c1ccccc1)c1ccccc1` [Diphenidol hydrochloride] yielded a fold induction at 50 µM ([1]; 384-well format, cutoff for positive-scoring molecules 3-fold increase, read-out: AK-based Prestwick Library Screening Results, E. faecium (increase in extracellular AK activity)) of 1, a fold induction at 50 µM ([2]; 384-well format, cutoff for positive-scoring molecules 3-fold increase, read-out: AK-based Prestwick Library Screening Results, K. pneumoniae (increase in extracellular AK activity)) of 0.7 and a fold induction at 50 µM ([3]; 384-well format, cutoff for positive-scoring molecules 3-fold increase, read-out: AK-based Prestwick Library Screening Results, E. cloacae (increase in extracellular AK activity)) of 0.8. For the same molecule, the fold induction at 50 µM ([4]; 384-well format, cutoff for positive-scoring molecules 3-fold increase, read-out: AK-based Prestwick Library Screening Results, A. baumannii (increase in extracellular AK activity)) was 0.7, the fold induction at 50 µM ([5]; 384-well format, cutoff for positive-scoring molecules 3-fold increase, read-out: AK-based Prestwick Library Screening Results, P. aeruginosa (increase in extracellular AK activity)) was 0.8 and the fold induction at 50 µM ([6]; 384-well format, cutoff for positive-scoring molecules 3-fold increase, read-out: AK-based Prestwick Library Screening Results, E. coli (increase in extracellular AK activity)) was 0.8. The fold induction at 50 µM ([7]; 384-well format, cutoff for positive-scoring molecules 3-fold increase, read-out: AK-based Prestwick Library Screening Results, S. aureus (increase in extracellular AK activity)) was 0.7.
